The target of the assay is T1, Ubc13-Uev1 heterodimer (Homo sapiens, UniProt P61088).
T1 construct: gene UBE2N; heterodimer of purified recombinant Ubc13 and Uev1; with Ubiquitin-conjugating enzyme E2 variant 1
In words: surface plasmon resonance competition: Ubc13 preincubated with compound, injected over immobilized Uev1. Type of assay: binding. The note with it: inhibition of Ubc13-Uev1 interaction; Ubc13 400 nM; 10 mM HEPES, 0.15 M NaCl, pH 7.4; legend prints 1.1 µM. (In general: In SPR one partner is held on a chip, and binding of the other changes the refractive index at the surface.)

The structures appear in SMILES notation.

T1 sequence (P61088 whole entry): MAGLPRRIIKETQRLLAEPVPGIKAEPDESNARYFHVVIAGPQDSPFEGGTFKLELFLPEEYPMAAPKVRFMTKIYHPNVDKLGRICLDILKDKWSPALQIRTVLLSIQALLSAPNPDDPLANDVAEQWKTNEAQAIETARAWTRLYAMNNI
T1 sequence (Q13404 2-147 partner): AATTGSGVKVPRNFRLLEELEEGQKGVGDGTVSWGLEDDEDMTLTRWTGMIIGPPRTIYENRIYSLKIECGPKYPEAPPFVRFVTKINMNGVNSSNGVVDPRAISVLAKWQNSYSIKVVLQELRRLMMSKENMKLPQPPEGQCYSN

Regarding `NC(=O)CN(CCc1ccccn1)C(=O)CC1C(=O)N(CCc2ccc(F)cc2)CC(=O)N1CCc1ccc(F)cc1` (stereo not shown) [IIa, compound IIa], the IC50 – broadly, the concentration needed to halve the response being measured – is 1.1 µM.

(Values after article PMC2894972, “Protein-Protein Interaction Antagonists as Novel Inhibitors of Non-Canonical Polyubiquitylation” (PLoS ONE, 2010).)
